Experimental data: patent US20260116868A1 (Arcus Biosciences, Inc., priority 2023, published 2026)

Target: T1, Cbl-b (Homo sapiens, UniProt Q13191)
T1 construct: biotin (biotinylated protein)
Assay: Cbl-b probe displacement HTRF binding assay
Conditions: 0.4 nM Cbl-b, 150 nM BODIPY probe
How it was run: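 Binding IC50 from four-parameter fit of HTRF signal loss, normalised to DMSO (0%) and no-protein (100%) wells. Biotinylated Cbl-b 0.4 nM was preincubated 60 min with compound (20-point 1:2 dilution) before 15 min with 150 nM BODIPY probe; Tb-streptavidin detection.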

T1 sequence (Q13191 whole entry, species assumed): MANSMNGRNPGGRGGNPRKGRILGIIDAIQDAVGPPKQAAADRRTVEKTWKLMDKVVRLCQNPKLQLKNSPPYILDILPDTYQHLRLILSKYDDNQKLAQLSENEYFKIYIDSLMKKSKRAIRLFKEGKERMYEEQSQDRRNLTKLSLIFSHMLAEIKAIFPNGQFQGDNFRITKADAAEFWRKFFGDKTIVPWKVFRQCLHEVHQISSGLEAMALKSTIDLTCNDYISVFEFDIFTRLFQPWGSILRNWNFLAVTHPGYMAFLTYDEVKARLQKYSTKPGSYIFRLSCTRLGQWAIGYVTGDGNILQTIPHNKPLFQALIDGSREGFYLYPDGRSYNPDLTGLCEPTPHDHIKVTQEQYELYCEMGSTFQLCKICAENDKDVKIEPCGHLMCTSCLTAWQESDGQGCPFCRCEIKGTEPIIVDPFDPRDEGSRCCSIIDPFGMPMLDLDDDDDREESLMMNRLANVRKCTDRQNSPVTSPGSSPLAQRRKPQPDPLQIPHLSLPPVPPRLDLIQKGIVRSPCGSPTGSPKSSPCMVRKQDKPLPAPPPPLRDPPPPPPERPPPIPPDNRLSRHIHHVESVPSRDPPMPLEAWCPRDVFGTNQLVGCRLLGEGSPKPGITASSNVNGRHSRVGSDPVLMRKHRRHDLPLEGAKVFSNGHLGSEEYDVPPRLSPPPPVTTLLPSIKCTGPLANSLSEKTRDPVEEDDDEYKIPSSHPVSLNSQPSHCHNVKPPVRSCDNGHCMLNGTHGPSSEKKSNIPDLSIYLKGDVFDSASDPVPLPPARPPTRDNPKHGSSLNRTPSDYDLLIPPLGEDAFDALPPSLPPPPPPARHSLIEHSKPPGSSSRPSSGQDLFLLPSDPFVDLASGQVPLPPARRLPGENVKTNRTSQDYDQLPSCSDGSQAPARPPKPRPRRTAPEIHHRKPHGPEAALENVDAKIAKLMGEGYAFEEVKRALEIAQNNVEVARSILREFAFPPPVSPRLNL

IC50 [nM]	Compound
< 100	CC(C)Oc1cc(-c2ccc(C#N)cc2C(=O)N2CC(F)(F)C2)cc(NC(=O)c2cc(CNC[C@@H]3CCCCO3)cn(C3CC3)c2=O)n1 [Example 392]
< 100	CC(C)Oc1cc(-c2ccc(Cl)cc2C(=O)N2CC(F)C2)cc(NC(=O)c2cc(CN[C@@H](C)C3CC3)cn(C3CC3)c2=O)n1 [Example 264]
< 100	CO[C@@H](C)CNCc1cc(C(=O)Nc2cc(-c3ccc(Cl)cc3C(=O)N3CC(F)(F)C3)cc(NC(C)C)n2)c(=O)n(C2CC2)c1 [Example 217]
< 100	CC(C)Oc1cc(-c2ccc(Cl)cc2C(=O)N2CC(F)C2)cc(NC(=O)c2cc(CNC[C@@H]3CCCO3)cn(C3CC3)c2=O)n1 [Example 271]
< 100	COc1ccc(-c2cc(NC(=O)c3cc(CN[C@@H](C)[C@H](C)OC)cn(C4CC4)c3=O)nc(C3CC3)c2)c(C(=O)N2CC(F)C2)c1 [Example 269]
< 100	CC(C)CNCc1cc(C(=O)Nc2cc(-c3ccc(C#N)cc3C(=O)N3CC(F)(F)C3)cc(N(C)C)n2)c(=O)n(C2CC2)c1 [Example 193]
< 100	COCCNCc1cc(C(=O)Nc2cc(-c3ccc(Cl)cc3C(=O)N3CC(F)C3)cc(C3CC3)n2)c(=O)n(C2CC2)c1 [Example 285]
< 100	CCn1cc(CNCC2CC2)cc(C(=O)Nc2cc(-c3ccc(C#N)cc3C(=O)N3CC(F)(F)C3)cc(C3CC3)n2)c1=O [Example 189]
< 100	CO[C@@H](C)CNCc1cc(C(=O)Nc2cc(-c3ccc(OC(F)F)cc3C(=O)N3CC(F)(F)C3)cc(OC(C)C)n2)c(=O)n(C)c1 [Example 113, N-(4-{2-[(3,3-difluoro-1-azetidinyl)carbonyl]-4-difluoromethoxyphenyl}-6-isopropoxy-2-pyridyl)-5-{[(S)-2-methoxypropylamino]methyl}-1-methyl-2-oxo-1,2-dihydronicotinamide]
< 100	CC(C)Oc1cc(-c2ccc(C#N)cc2C(=O)N2CC(F)C2)cc(NC(=O)c2cc(CNC[C@@H]3CCCO3)cn(C)c2=O)n1 [Example 279]
< 100	CO[C@@H](C)CNCc1cc(C(=O)Nc2cc(-c3ccc(C#N)cc3C(=O)N3CC(F)(F)C3)cc(OC3CC3)n2)c(=O)n(C2CC2)c1 [Example 195]
< 100	O=C(Nc1cc(-c2ccc(OC(F)F)cc2C(=O)N2CC(F)(F)C2)cc(OCC(F)F)n1)c1cc(CNC[C@@H]2CCCO2)cn(C2CC2)c1=O [Example 164]
< 100	N#Cc1ccc(-c2cc(NC(=O)c3cc(CNC[C@@H]4CCCO4)cn(C4CC4)c3=O)nc(OCC(F)F)c2)c(C(=O)N2CC(F)(F)C2)c1 [Example 132, N-(4-{4-cyano-2-[(3,3-difluoro-1-azetidinyl)carbonyl]phenyl}-6-(2,2-difluoroethoxy)-2-pyridyl)-1-cyclopropyl-2-oxo-5-[({[(S)-perhydro-2-furyl]methyl}amino)methyl]-1,2-dihydronicotinamide]
< 100	C[C@H](NCc1cc(C(=O)Nc2cc(-c3ccc(Cl)cc3C(=O)N3CC(F)(F)C3)cc(C3CC3)n2)c(=O)n(C2CC2)c1)C1CC1 [Example 135, N-(4-{4-chloro-2-[(3,3-difluoro-1-azetidinyl)carbonyl]phenyl}-6-cyclopropyl-2-pyridyl)-1-cyclopropyl-5-{[(S)-1-cyclopropylethylamino]methyl}-2-oxo-1,2-dihydronicotinamide]
< 100	CO[C@@H](C)CNCc1cc(C(=O)Nc2cc(-c3ccc(Cl)cc3C(=O)N3CC(F)C3)cc(OC(C)C)n2)c(=O)n(C2CC2)c1 [Example 253]
< 100	CO[C@@H](C)CNCc1cc(C(=O)Nc2cc(-c3ccc(Cl)cc3C(=O)N3CC(C)(F)C3)cc(C3CC3)n2)c(=O)n(C2CC2)c1 [Example 158, N-(4-{4-Chloro-2-[(3-fluoro-3-methyl-1-azetidinyl)carbonyl]phenyl}-6-cyclopropyl-2-pyridyl)-1-cyclopropyl-5-{[(S)-2-methoxypropylamino]methyl}-2-oxo-1,2-dihydronicotinamide]
< 100	CO[C@@H](C)CNCc1cc(C(=O)Nc2cc(-c3c(F)cc(Cl)cc3C(=O)N3CC(F)(F)C3)cc(NC(C)C)n2)c(=O)n(C2CC2)c1 [Example 198]
< 100	CO[C@@H](C)CNCc1cc(C(=O)Nc2cc(-c3ccc(F)cc3C(=O)N3CC(F)(F)C3)cc(OC(C)C)n2)c(=O)n(C2CC2)c1 [Example 137, N-(4-{2-[(3,3-difluoro-1-azetidinyl)carbonyl]-4-fluorophenyl}-6-isopropoxy-2-pyridyl)-1-cyclopropyl-5-{[(S)-2-methoxypropylamino]methyl}-2-oxo-1,2-dihydronicotinamide]
< 100	CO[C@@H](C)CNCc1cc(C(=O)Nc2cc(-c3ccc(Cl)cc3C(=O)N3CC(C)C3)cc(C3CC3)n2)c(=O)n(C2CC2)c1 [Example 159, N-(4-{4-Chloro-2-[(3-methyl-1-azetidinyl)carbonyl]phenyl}-6-cyclopropyl-2-pyridyl)-1-cyclopropyl-5-{[(S)-2-methoxypropylamino]methyl}-2-oxo-1,2-dihydronicotinamide]
< 100	CCOc1cc(-c2ccc(OC(F)F)cc2C(=O)N2CC(F)C2)cc(NC(=O)c2cc(CNC[C@@H]3CCCO3)cn(C3CC3)c2=O)n1 [Example 266]

IC50 [nM]	Compound
< 100	CO[C@@H](C)[C@H](C)NCc1cc(C(=O)Nc2cc(-c3c(F)cc(C#N)cc3C(=O)N3CC(F)(F)C3)cc(C3CC3)n2)c(=O)n(C)c1 [Example 229]
< 100	CO[C@@H](C)[C@H](C)NCc1cc(C(=O)Nc2cc(-c3c(F)cc(C#N)cc3C(=O)N3CC(F)(F)C3)cc(C3CC3)n2)c(=O)n(C2CC2)c1 [Example 125, N-(4-{4-cyano-2-[(3,3-difluoro-1-azetidinyl)carbonyl]-6-fluorophenyl}-6-cyclopropyl-2-pyridyl)-1-cyclopropyl-5-{[(1S,2S)-2-methoxy-1-methylpropylamino]methyl}-2-oxo-1,2-dihydronicotinamide]
< 100	CC(C)Oc1cc(-c2ccc(C#N)cc2C(=O)N2CC(F)(F)C2)cc(NC(=O)c2cc(CN[C@@H](C)C3CCC3)cn(C)c2=O)n1 [Example 100, N-[4-[4-cyano-2-(3,3-difluoroazetidine-1-carbonyl)phenyl]-6-propan-2-yloxypyridin-2-yl]-5-[[[(1S)-1-cyclobutylethyl]amino]methyl]-1-methyl-2-oxopyridine-3-carboxamide]
< 100	CC(C)CNCc1cc(C(=O)Nc2cc(-c3ccc(C#N)cc3C(=O)N3CC(F)(F)C3)cc(C3CC3)n2)c(=O)n(C)c1 [Example 175]
< 100	COc1ccc(-c2cc(NC(=O)c3cc(CNC[C@H](C)OC)cn(C)c3=O)nc(OC(C)C)c2)c(C(=O)N2CC(F)C2)c1 [Example 302]
< 100	CCOc1cc(-c2ccc(C#N)cc2C(=O)N2CC(F)(F)C2)cc(NC(=O)c2cc(CNC[C@H](C)OC)cn(C)c2=O)n1 [Example 181]
< 100	CCOc1cc(-c2ccc(OC(F)F)cc2C(=O)N2CC(F)C2)cc(NC(=O)c2cc(CN[C@@H](C)C3CCC3)cn(C)c2=O)n1 [Example 257]
< 100	CC1(CNCc2cc(C(=O)Nc3cc(-c4ccc(Cl)cc4C(=O)N4CC(F)(F)C4)cc(C4CC4)n3)c(=O)n(C3CC3)c2)CC1 [Example 408]
< 100	CO[C@@H](C)CNCc1cc(C(=O)Nc2cc(-c3ccc(C#N)cc3C(=O)N3CC(F)(F)C3)cc(OCC(F)F)n2)c(=O)n(C2CC2)c1 [Example 131, N-(4-{4-cyano-2-[(3,3-difluoro-1-azetidinyl)carbonyl]phenyl}-6-(2,2-difluoroethoxy)-2-pyridyl)-1-cyclopropyl-5-{[(S)-2-methoxypropylamino]methyl}-2-oxo-1,2-dihydronicotinamide]
< 100	O=C(Nc1cc(-c2ccc(Cl)cc2C(=O)N2CC(F)(F)C2)cc(C2CC2)n1)c1cc(CNC[C@@H]2COCCO2)cn(C2CC2)c1=O [Example 133, N-(4-{4-chloro-2-[(3,3-difluoro-1-azetidinyl)carbonyl]phenyl}-6-cyclopropyl-2-pyridyl)-1-cyclopropyl-5-[({[(R)-1,4-dioxan-2-yl]methyl}amino)methyl]-2-oxo-1,2-dihydronicotinamide]
< 100	N#Cc1ccc(-c2cc(NC(=O)c3cc(CNCC4CC4)cn(C4CC4)c3=O)nc(C3CC3)c2)c(C(=O)N2CC(F)(F)C2)c1 [Example 383]
< 100	CO[C@@H](C)CNCc1cc(C(=O)Nc2cc(-c3c(F)cc(Cl)cc3C(=O)N3CC(F)(F)C3)cc(C3CC3)n2)c(=O)n(C)c1 [Example 177]
< 100	CC(C)Oc1cc(-c2ccc(OC(F)F)cc2C(=O)N2CC(F)C2)cc(NC(=O)c2cc(CNC[C@@H]3COCCO3)cn(C)c2=O)n1 [Example 377]
< 100	COCCNCc1cc(C(=O)Nc2cc(-c3ccc(Cl)cc3C(=O)N3CC(F)(F)C3)cc(C3CC3)n2)c(=O)n(C2CC2)c1 [Example 382]
< 100	CC(C)Oc1cc(-c2ccc(C#N)cc2C(=O)N2CC(F)(F)C2)cc(NC(=O)c2cc(CN[C@@H](C)C3CCC3)cn(C3CC3)c2=O)n1 [Example 143, N-(4-{4-cyano-2-[(3,3-difluoro-1-azetidinyl)carbonyl]phenyl}-6-isopropoxy-2-pyridyl)-5-{[(S)-1-cyclobutylethylamino]methyl}-1-cyclopropyl-2-oxo-1,2-dihydronicotinamide]
< 100	COC[C@H](C)NCc1cc(C(=O)Nc2cc(-c3ccc(C#N)cc3C(=O)N3CC(F)(F)C3)cc(C3CC3)n2)c(=O)n(C2CC2)c1 [Example 361]
< 100	CC(C)Oc1cc(-c2c(F)cc(C#N)cc2C(=O)N2CC(F)(F)C2)cc(NC(=O)c2cc(CN[C@@H](C)C3CC3)cn(C)c2=O)n1 [Example 233]
< 100	CC(C)Oc1cc(-c2ccc(C#N)cc2C(=O)N2CC(F)(F)C2)cc(NC(=O)c2cc(CNC[C@@H]3CCCO3)cn(C3CC3)c2=O)n1 [Example 96, N-(4-{4-cyano-2-[(3,3-difluoro-1-azetidinyl)carbonyl]phenyl}-6-isopropoxy-2-pyridyl)-5-[({[(S)-tetrahydro-2-furyl]methyl}amino)methyl]-1-cyclopropyl-2-oxo-1,2-dihydronicotinamide]
< 100	CC(C)Oc1cc(-c2ccc(C#N)cc2C(=O)N2CC(F)C2)cc(NC(=O)c2cc(CN[C@@H](C)C3CCC3)cn(C)c2=O)n1 [Example 246]
